# Test results as given in patent US12403132B2, “Methods of treating bone marrow failure syndromes and compositions for use in the same” (The Board of Trustees of the Leland Stanford Junior …, priority 2020, dated 2025).
# Where two headings read alike, the source gives them in different places.
# Tests used:
# NLK = target: T1, NLK (Homo sapiens, UniProt Q9UBE8); experiment: Kinase assay of NLK immunopurified from treated differentiating human progenitors; assay type: cell-based; parameters: 5000 cells per treatment were lysed and immunopurified NLK was subjected to in vitro kinase assay; endogenous in cells; host or cells: human cord blood CD34+ HSPCs transduced with shLuc / shRPS19 / shRPL11, differentiating in erythroid medium; conditions: for reduction in kinase activity of NLK immuno-precipitated from treated cultures: RPS19-insufficient human progenitors
# T1 sequence (Q9UBE8 1-527): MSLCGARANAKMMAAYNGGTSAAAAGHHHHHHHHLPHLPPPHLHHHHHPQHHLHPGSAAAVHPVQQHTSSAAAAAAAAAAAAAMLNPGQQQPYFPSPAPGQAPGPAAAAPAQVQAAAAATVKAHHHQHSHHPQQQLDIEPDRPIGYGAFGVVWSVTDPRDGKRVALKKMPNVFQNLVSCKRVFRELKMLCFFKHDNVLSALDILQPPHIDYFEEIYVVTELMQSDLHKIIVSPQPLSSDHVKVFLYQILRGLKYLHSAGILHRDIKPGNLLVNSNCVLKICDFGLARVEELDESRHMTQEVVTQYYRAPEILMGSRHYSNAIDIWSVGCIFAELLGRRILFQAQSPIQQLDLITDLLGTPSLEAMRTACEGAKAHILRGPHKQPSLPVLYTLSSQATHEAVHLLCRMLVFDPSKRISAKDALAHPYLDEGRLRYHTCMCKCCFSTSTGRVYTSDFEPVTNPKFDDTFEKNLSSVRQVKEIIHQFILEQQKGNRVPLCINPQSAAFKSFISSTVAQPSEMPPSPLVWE
# Protocol: FIG. 7. SD208 increases erythroid expansion in human model of DBA through inhibition of NLK and not TGFβ. (a) Differentiating cord blood CD34+ progenitors were transduced with shRNA against luciferase or RPS19 and treated with inhibitors at working concentrations for TGFβ inhibition every three days. Cells were counted and CD235+ erythroid cells were assessed by flow cytometry after 15 days. (b) Prior to flow cytometry, 5000 cells per group were taken from differentiating cultures for NLK kinase assay. (c) CD34+ progenitors were transduced with shRNA against luciferase or RPS19 and non-targeting or siRNA against NLK. After sorting, samples were split into two groups and either treated with vehicle or SD208 every three days. After 15 days cells were counted and subject to flow cytometry to compare the expansion of maturing CD235+ erythroid (left panel) and CD11b+ myeloid cells (right panel). (d) Cord Blood CD34+ progenitors were transduced with shRNA against luciferase (left panel) or RPS19 (right panel) differentiated in erythroid media for 15 days alone, or in the presence of SB525334 or SD208 at 5 μM. Cells were counted and CD235+ erythroid (D—upper) and CD11b+ myeloid cell (D—lower) percentages were determined by flow cytometry. The number of erythroid or myeloid cells is expressed as a percentage of the number of that lineage with no cytokine or drug treatment.
# FIG. 8. NLK inhibition increases expansion of erythroid progenitors from human and murine models of DBA. Human cord blood CD34+ progenitors were transduced with lentivirus co-expressing GFP with shRNA against luciferase (shLuc), RPS19 (shRPS19) or RPL11 (shRPL11). After 36 hours cells GFP+ cells were differentiated in erythroid media in the presence or absence of 5 μM SD208 for 15 days. Cells were counted and assessed for cell surface expression of CD235. (a) The percentage of CD235+ cells was multiplied by the cell count and values were compared as a percentage of untreated controls. (b) Normalizing values relative to untreated RPS19-insufficiency progenitors facilitates direct comparison of erythropoiesis between untreated and SD208-treated cultures. (c) Approximately 3000 cells were removed from differentiating treatments at day 6 and NLK activity was assessed. Values were normalized to reflect a fold induction relative to untreated controls. (d) Lin-Kit+ hematopoietic progenitors were obtained from three mouse embryos expressing tetracycline-inducible shRNA against RPS19 at day E14.5 or three untreated mice, and thee mature RPL11^+/+ or three mature RPL11^+/lox mice treated with tamoxifen for eight weeks. Cells were grown in the presence or absence of doxycycline and/or SD208 for eight days prior to counting and assessing for ter119 surface expression. Values were expressed as a percentage relative to untreated controls (e) and directly comparing the effect of SD208 on erythropoiesis in ribosomal-insufficiency by expressing values relative to untreated ribosome-insufficient cultures (f). At day 5 approximately 3000 cells were assayed for NLK kinase assay (g). CD34+ HSPCs were isolated from three healthy control and three DBA patient mononuclear bone marrow aspirates by magnetic bead sorting and differentiated in the presence or absence of SD208 for 14 days. After counting the total cell population, the ratio of CD235+ erythroblasts was determined by flow cytometry and number of CD235+ erythroblasts calculated. This was expressed as a percentage of the average number of erythroid cells present in untreated healthy controls. (h) The direct effect of SD208 on erythroid expansion in DBA patient samples was calculated following normalization of untreated DBA patient samples as 1-fold, (i) At day five, 3000 cells from each of the differentiating cultures was analyzed for NLK activity by kinase assay and are expressed as a fold induction relative to untreated healthy controls. […]
# CD235+ erythroblasts = experiment: CD235+ erythroid expansion of differentiating human cord blood CD34+ progenitors (shRPS19/shRPL11 DBA models), flow cytometry; assay type: cell-based; parameters: increase of erythroid expansion / impact on erythropoiesis in healthy controls / erythroid expansion in RPS19-insufficiency: dose or concentration left out as unconfirmed; conditions: for erythroid expansion in RPS19-insufficiency: alone and combined; for increase of CD235+ erythroid expansion / CD235+ erythroid expansion, % of control: 50 mM metformin; for CD235+ erythroid expansion, % of control: 14 days
# [1] = RPS19-insufficient progenitors, 50 mM metformin, 5 days
smiles,measurement,setting,value
Cc1cccc(-c2nn3c(c2-c2ccnc4ccc(C(N)=O)cc24)CCC3)n1 [Galunisertib],reduction in kinase activity of NLK immuno-precipitated from treated cultures,NLK,61.2%
NC(=O)c1ccc(-c2nc(-c3ccc4c(c3)OCO4)c(-c3ccccn3)[nH]2)cc1 [SB431542],reduction in kinase activity of NLK immuno-precipitated from treated cultures,NLK,73.6%
Fc1ccc(Cl)cc1-c1nc(Nc2ccncc2)c2nccnc2n1 [SD208],"CD235+ erythroblast expansion, % of controls","CD235+ erythroblasts; RPS19-insufficient, SD208 and/or siRNA against NLK, 15 days",40.3%
same,"erythroid expansion, % of untreated controls","CD235+ erythroblasts; control shRNA, SD208 5 μM, 15 days",approximately 105%
same,"NLK activity, NLK phosphorylation, fold of untreated controls","NLK; RPL11-insufficiency with SD208 5 μM, 3.0-fold without",1.2 fold
same,"NLK activity, Myb phosphorylation, fold of untreated controls","NLK; RPL11-insufficiency with SD208 5 μM, 4.6-fold without",1.38 fold
same,"NLK activity, raptor phosphorylation, fold of untreated controls","NLK; RPL11-insufficiency with SD208 5 μM, 7.3-fold without",1.6 fold
same,"NLK activity, NLK phosphorylation, fold of untreated controls","NLK; RPS19-insufficiency with SD208 5 μM, 3.5-fold without",1.2 fold
same,"NLK activity, Myb phosphorylation, fold of untreated controls","NLK; RPS19-insufficiency with SD208 5 μM, 5.2-fold without",1.5 fold
same,"NLK activity, raptor phosphorylation, fold of untreated controls","NLK; RPS19-insufficiency with SD208 5 μM, 8.4-fold without",1.7 fold
same,reduction in kinase activity of NLK immuno-precipitated from treated cultures,NLK,92.5%
CC(C)=CCC[C@](C)(O[C@@H]1O[C@H](CO[C@@H]2O[C@H](CO)[C@@H](O)[C@H](O)[C@H]2O)[C@@H](O)[C@H](O)[C@H]1O)[C@H]1CC[C@]2(C)[C@@H]1[C@H](O)C[C@@H]1[C@@]3(C)CC[C@H](O[C@@H]4O[C@H](CO)[C@@H](O)[C@H](O)[C@H]4O[C@@H]4O[C@H](CO)[C@@H](O)[C@H](O)[C@H]4O)C(C)(C)[C@@H]3CC[C@]12C [ginsenoside Rb1],concentration at which 90% potency is achieved,CD235+ erythroblasts,8.6 mM
same,impact on erythropoiesis in healthy controls,CD235+ erythroblasts,did not significantly impact
same,improvement of erythroid expansion,"CD235+ erythroblasts; RPS19-insufficiency, ginsenoside and/or siRNA against NLK",2.7 fold
same,increase of erythroid expansion,"CD235+ erythroblasts; RPS19-insufficiency, miRNA and/or drug",2.52 fold
same,increase of erythroid expansion,CD235+ erythroblasts; RPS19-insufficient progenitors,2.6 fold
same,erythroid expansion in RPS19-insufficiency,CD235+ erythroblasts,20.9%
same,EC50,CD235+ erythroblasts; read-out: EC50 value (erythroid expansion),2.3 mM
CN(C)C(=N)N=C(N)N [metformin],concentrations at which significant erythroid improvement was detected,CD235+ erythroblasts,above 8 mM
same,EC50,"CD235+ erythroblasts; Homo sapiens, read-out: EC50 (erythroid expansion)",11.4 mM
same,increase of CD235+ erythroid expansion,CD235+ erythroblasts; RPL11-insufficiency,2.0 fold
same,"CD235+ erythroid expansion, % of control","CD235+ erythroblasts; RPL11-insufficiency, 16.4% untreated",32.7%
same,improvement of erythropoiesis (CD235+),"CD235+ erythroblasts; RPS19-insufficiency (8.3% of controls untreated), 12 days",3.6 fold
same,increase of CD235+ erythroid expansion,CD235+ erythroblasts; RPS19-insufficiency,5.9 fold
same,"CD235+ erythroid expansion, % of control","CD235+ erythroblasts; RPS19-insufficiency, 5.7% untreated",33.3%
same,erythroid expansion in RPS19-insufficiency,CD235+ erythroblasts,28.4%
same,reduction of phosphorylation of NLK,NLK; [1],48.5%
same,reduction of phosphorylation of c-Myb,NLK; [1],39.8%
same,reduction of phosphorylation of raptor,NLK; [1],40.2%
